Measured values from the supplement of paper PMC6045584.
± gives the standard deviation of the averaged measurements.

Legend:
METHOTREXATE = compound: CN(Cc1cnc2nc(N)nc(N)c2n1)c1ccc(C(=O)N[C@@H](CCC(=O)O)C(=O)O)cc1 [METHOTREXATE]; experiment: surviving fraction relative to DMSO-only wells; higher = less growth inhibition; conditions: exposure time: 5 days
Outline: (§1)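 Surviving fraction was calculated by normalising CellTiter-Glo luminescence to the median of DMSO-only wells. Tumour cell lines in log phase were seeded in 384-well plates at 250–500 cells per well, and 24 hours later were exposed continuously for five days to inhibitors at 0.5, 1, 5, 10, 50, 100, 500 and 1000 nM.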

VINORELBINE = compound: CCC1=C[C@@H]2CN(C1)Cc1c([nH]c3ccccc13)[C@@](C(=O)OC)(c1cc3c(cc1OC)N(C)[C@H]1[C@@](O)(C(=O)OC)[C@H](OC(C)=O)[C@]4(CC)C=CCN5CC[C@]31[C@@H]54)C2 [VINORELBINE]; experiment: as above; conditions: exposure time: 5 days
Outline: as §1

Test System	surviving fraction (METHOTREXATE; 0.5 nM)	surviving fraction (METHOTREXATE; 1 nM)	surviving fraction (METHOTREXATE; 5 nM)	surviving fraction (METHOTREXATE; 10 nM)	surviving fraction (METHOTREXATE; 50 nM)	surviving fraction (METHOTREXATE; 100 nM)	surviving fraction (METHOTREXATE; 500 nM)	surviving fraction (METHOTREXATE; 1000 nM)	surviving fraction (VINORELBINE; 0.5 nM)	surviving fraction (VINORELBINE; 1 nM)	surviving fraction (VINORELBINE; 5 nM)	surviving fraction (VINORELBINE; 10 nM)	surviving fraction (VINORELBINE; 50 nM)	surviving fraction (VINORELBINE; 100 nM)	surviving fraction (VINORELBINE; 500 nM)	surviving fraction (VINORELBINE; 1000 nM)
MDAMB231 BREAST	0.982 ± 0.023	0.967 ± 0.02	0.988 ± 0.026	0.986 ± 0.026	1.02 ± 0.02	1.01 ± 0.044	0.811 ± 0.017	0.509 ± 0.015	0.976 ± 0.035	0.998 ± 0.02	0.904 ± 0.027	0.681 ± 0.027	0.238 ± 0.008	0.244 ± 0.0099	0.189 ± 0.0019	0.172 ± 0.009
MDAMB361 BREAST	0.85 ± 0.13	0.853 ± 0.073	0.8 ± 0.015	0.889 ± 0.062	0.947 ± 0.082	0.879 ± 0.037	0.74 ± 0.045	0.735 ± 0.075	0.791 ± 0.062	0.786 ± 0.076	0.695 ± 0.056	0.603 ± 0.016	0.607 ± 0.03	0.566 ± 0.04	0.5787 ± 0.0021	0.502 ± 0.058
MDAMB436 BREAST	0.955 ± 0.13	0.977 ± 0.091	0.963 ± 0.12	0.857 ± 0.024	0.677 ± 0.096	0.609 ± 0.057	0.65 ± 0.14	0.687 ± 0.083	0.9 ± 0.064	0.88 ± 0.045	0.796 ± 0.12	0.742 ± 0.038	0.591 ± 0.032	0.51 ± 0.033	0.211 ± 0.013	0.221 ± 0.018
MDAMB453 BREAST	1.04 ± 0.088	1.06 ± 0.025	1.12 ± 0.068	1.04 ± 0.038	0.966 ± 0.024	0.757 ± 0.028	0.655 ± 0.039	0.66 ± 0.018	1.04 ± 0.049	1.029 ± 0.004	0.387 ± 0.038	0.244 ± 0.022	0.16 ± 0.034	0.116 ± 0.018	0.176 ± 0.044	0.25 ± 0.048
MDAMB468 BREAST	1.12 ± 0.046	1.09 ± 0.072	1.11 ± 0.042	1.12 ± 0.025	0.263 ± 0.015	0.083 ± 0.0027	0.0627 ± 0.0057	0.065 ± 0.001	1.02 ± 0.065	0.929 ± 0.019	0.645 ± 0.025	0.379 ± 0.041	0.0613 ± 0.007	0.0593 ± 0.005	0.117 ± 0.016	0.177 ± 0.0095
MFM223 BREAST	1.18 ± 0.11	1.3 ± 0.3	1.35 ± 0.41	1.41 ± 0.43	1.09 ± 0.096	0.98 ± 0.046	1.04 ± 0.035	1.01 ± 0.018	1.13 ± 0.1	1.05 ± 0.066	0.905 ± 0.094	0.512 ± 0.01	0.0818 ± 0.0055	0.0723 ± 0.011	0.0547 ± 0.00076	0.0517 ± 0.0023
MG63 BONE	1.05 ± 0.051	1.07 ± 0.047	1.11 ± 0.042	1.1 ± 0.052	0.364 ± 0.016	0.197 ± 0.0027	0.178 ± 0.01	0.17 ± 0.0082	1.02 ± 0.025	1 ± 0.043	1.06 ± 0.02	1 ± 0.023	0.07 ± 0.0095	0.0503 ± 0.014	0.0683 ± 0.0071	0.065 ± 0.0046
MHM BONE	1.02 ± 0.036	1.04 ± 0.044	1.05 ± 0.078	1.06 ± 0.038	0.784 ± 0.016	0.723 ± 0.04	0.689 ± 0.019	0.699 ± 0.01	1.01 ± 0.029	0.988 ± 0.029	1.022 ± 0.0092	1 ± 0.02	0.493 ± 0.025	0.325 ± 0.029	0.22 ± 0.013	0.195 ± 0.014
NCIH441 LUNG	1.15 ± 0.12	1.14 ± 0.099	1.12 ± 0.023	1.11 ± 0.062	1.04 ± 0.12	0.882 ± 0.067	0.882 ± 0.11	0.855 ± 0.1	1.13 ± 0.13	1.11 ± 0.059	1.02 ± 0.072	0.877 ± 0.029	0.4817 ± 0.0045	0.422 ± 0.041	0.497 ± 0.054	0.423 ± 0.044
NOS1 BONE	1.07 ± 0.13	1.05 ± 0.12	1.16 ± 0.08	1.15 ± 0.041	1.26 ± 0.25	1.4 ± 0.33	1.19 ± 0.13	1.12 ± 0.06	0.987 ± 0.04	1.1 ± 0.081	0.978 ± 0.024	0.805 ± 0.024	0.287 ± 0.047	0.263 ± 0.035	0.195 ± 0.017	0.188 ± 0.016
NY BONE	0.978 ± 0.015	0.993 ± 0.013	1.07 ± 0.068	0.97 ± 0.037	0.56 ± 0.023	0.566 ± 0.03	0.475 ± 0.026	0.42 ± 0.025	0.994 ± 0.019	0.964 ± 0.026	0.924 ± 0.075	0.437 ± 0.016	0.0393 ± 0.0031	0.035 ± 0.006	0.0417 ± 0.0074	0.0433 ± 0.0075
OS25HAL BONE	0.998 ± 0.041	1.01 ± 0.035	1.05 ± 0.029	0.786 ± 0.031	0.357 ± 0.022	0.217 ± 0.017	0.166 ± 0.0076	0.164 ± 0.0066	0.97 ± 0.046	0.985 ± 0.021	1.02 ± 0.024	0.912 ± 0.052	0.202 ± 0.02	0.0833 ± 0.0083	0.0677 ± 0.011	0.057 ± 0.007
OSHN BONE	1.12 ± 0.015	1.077 ± 0.0067	0.197 ± 0.0074	0.201 ± 0.0096	0.282 ± 0.031	0.265 ± 0.0081	0.251 ± 0.023	0.255 ± 0.031	1.07 ± 0.022	1.048 ± 0.0086	1.09 ± 0.021	1.04 ± 0.021	0.0367 ± 0.0021	0.025 ± 0.001	0.026	0.0293 ± 0.00058
PCI30 HEADNECK	0.988 ± 0.075	1.02 ± 0.062	1.11 ± 0.037	1.09 ± 0.075	1.05 ± 0.055	0.96 ± 0.029	0.811 ± 0.016	0.758 ± 0.071	0.994 ± 0.024	1.05 ± 0.02	0.463 ± 0.054	0.228 ± 0.017	0.078 ± 0.003	0.0933 ± 0.022	0.113 ± 0.025	0.147 ± 0.025
RDES SOFT TISSUE	1.2 ± 0.1	1.26 ± 0.021	0.831 ± 0.19	0.295 ± 0.015	0.055 ± 0.0036	0.0457 ± 0.0015	0.0463 ± 0.0046	0.0447 ± 0.0015	1.23 ± 0.18	1.15 ± 0.28	1.19 ± 0.18	1.24 ± 0.39	0.0793 ± 0.0093	0.071 ± 0.011	0.039 ± 0.0036	0.039 ± 0.005
S68 BREAST	0.882 ± 0.3	0.879 ± 0.25	1.1 ± 0.15	1.21 ± 0.29	1.07 ± 0.13	1.21 ± 0.16	1.04 ± 0.18	1.17 ± 0.12	1.12 ± 0.4	0.785 ± 0.22	0.995 ± 0.23	0.572 ± 0.26	0.155 ± 0.034	0.143 ± 0.013	0.0783 ± 0.015	0.0627 ± 0.0081
SAOS2 BONE	1.2 ± 0.051	1.18 ± 0.037	1.25 ± 0.05	1.25 ± 0.023	1.04 ± 0.031	0.841 ± 0.035	0.752 ± 0.018	0.753 ± 0.028	1.12 ± 0.014	1.18 ± 0.066	1.07 ± 0.06	0.812 ± 0.038	0.155 ± 0.0063	0.0997 ± 0.0029	0.11 ± 0.0081	0.104 ± 0.032
SCC36 HEADNECK	1.1 ± 0.11	1.1 ± 0.042	1.15 ± 0.076	1.16 ± 0.14	0.828 ± 0.022	0.731 ± 0.017	0.575 ± 0.046	0.626 ± 0.082	1.09 ± 0.15	0.927 ± 0.057	1.09 ± 0.093	0.819 ± 0.059	0.161 ± 0.0035	0.135 ± 0.026	0.0993 ± 0.011	0.1 ± 0.024
SCC47 HEADNECK	1.11 ± 0.097	1.15 ± 0.098	1.06 ± 0.019	0.946 ± 0.15	0.827 ± 0.04	0.814 ± 0.03	0.773 ± 0.033	0.789 ± 0.019	1.09 ± 0.13	1.06 ± 0.013	0.967 ± 0.055	0.693 ± 0.044	0.231 ± 0.023	0.1977 ± 0.0011	0.302 ± 0.022	0.289 ± 0.0068
SCC90 HEADNECK	1.07 ± 0.075	1.05 ± 0.11	1.07 ± 0.066	1.09 ± 0.098	0.954 ± 0.015	0.852 ± 0.068	0.424 ± 0.06	0.416 ± 0.031	1.04 ± 0.072	1.04 ± 0.06	1.01 ± 0.12	0.616 ± 0.066	0.126 ± 0.0029	0.099 ± 0.0066	0.097 ± 0.01	0.106 ± 0.015
